From patent US7098372B1, “Pharmaceutical compositions and methods of using secreted frizzled related protein” (Wyeth, priority 1999, dated 2006)

Assays:
Type in all cases: cell-based, human
hOB SFRP mRNA [1] = test: TaqMan quantitative RT-PCR of hOB SFRP mRNA; conditions: 24 hr
Experimental: In a similar manner, the hOB-01-C1 cells were seeded into 100 mm dishes and treated for 24 hr with increasing concentrations of TGF-β1. Total RNA was then isolated from the cells, and hOB SFRP mRNA was measured by TaqMan quantitative RT-PCR. TGF-β1 suppressed SFRP gene expression by approximately 70% in a dose-dependent manner with an IC50 of about 4 pM.
In addition to the hOB cell lines from which SFRP was initially identified, additional in vitro human osteoblast models were examined for the presence of the gene. SaOS-2 human osteosarcoma osteoblast-like cells were obtained from the American Type-Culture Collection (ATCC) and were cultured at 37° C. in McCoy's 5A Modified medium containing 10% FBS, 1% (v/v) Penicillin-Streptomycin and 2 mM GlutaMAX-1. Likewise, explant cultures of normal human osteoblasts (hOBs) were established from cancellous bone chips as previously described (Bodine et al. 1996 J. Bone Miner. Res. 11: 806–819, which is incorporated herein by reference). The cells were then seeded into 150 mm dishes and treated as described in Examples 1 and 4, except that the cells were incubated at 37° C. instead of 39° C. PolyA+ RNA Northern blot analysis was performed using the cloned 1.1 kb hOB SRFP gene fragment as a ^32P-label). SaOS-2 cells expressed relatively low basal levels of SFRP mRNA which was not regulated by treatment with either PTH, PGE2 or TGF-β1 (FIG. 7). It was difficult to quantify expression of this gene in these cells, since the level of expression was low. In contrast, normal hOB cells expressed higher basal levels of SFRP message, and treatment of the cells with 100 nM PGE2 for 24 hr appeared to slightly up-regulate the steady-state levels of this mRNA (˜1.3-fold). […] Due to the low basal level expression in osteosarcoma cells, these cells may not be satisfactory in vitro models to study the regulation of the SFRP gene. Since the gene is expressed and regulated by PGE2 in cultures of normal human osteoblasts, the use of the hOB cell lines described in the present invention is validated for in vitro osteoblast models.

hOB SFRP mRNA [2] = test: Northern blot analysis of hOB SFRP mRNA expression; conditions: for regulation of SFRP mRNA: SaOS-2 human osteosarcoma cells
Text: The hOB SFRP gene fragment was identified using RADE (rapid analysis of differential expression) technology as described by Shiue 1997 Drug Develop. Res. 41: 142–159, the whole of which is incorporated herein. Three hOB cell lines (hOB-03-C5, hOB-03-CE6 and hOB-01-C1), representing three distinct stages of differentiation (proliferative, mature and preosteocytic, respectively) were used to isolate and identify SFRP. The hOB cell lines were established and cultured as previously described (Bodine et al. 1996 J. Bone Miner. Res. 11: 806–819; Bodine et al. 1996 Endocrinology 137: 4592–4604; Bodine et al. 1997 J. Cell. Biochem. 65: 368–387). […] However, in contrast to osteosarcoma cells (Stein and Lian 1993 Endocrine Rev. 14: 424–442), the hOB cell lines were faithful to the proliferation/differentiation relationship at the nonpermissive temperature (>37° C.) when the T-antigen mutant is inactivated. The cell lines were seeded into 150 mm dishes at ˜40,000 cells/cm^2 with growth medium [D-MEM/F-12 containing 10% (v/v) heat-inactivated fetal bovine serum (FBS), 1% (v/v) Penicillin-Streptomycin and 2 mM GlutaMAX-1] and incubated overnight at 34° C. The next day, the medium was removed, the cells were rinsed with phosphate-buffered saline (PBS), 20 ml of serum-free medium was added to the dishes [phenol red-free D-MEM/F-12 (Gibco/BRL) containing 0.25% (w/v) bovine serum albumin (BSA, Pentex crystallized, Bayer), 1% (v/v) Penicillin-Streptomycin, 2 mM GlutaMAX-1, […] ascorbate-2-phosphate (Wako), and 10 nM menadione sodium bisulfite (vitamin K3)], and the dishes were incubated at 39° C. for 24 hr. The next day, the medium was removed and the cells were treated at 39° C. for an additional 24 hr with 20 ml of fresh serum-free medium containing either vehicle (Control), 8 nM human parathyroid hormone 1–34 (PTH), 100 nM prostaglandin E2 (PGE2) or 0.1 nM human transforming growth factor-β1 (TGF-β1). PTH, PGE2 and TGF-β1 are known osteogenic agents (Whitfield and Morley 1995 Trends Pharmaceut. Sci. 16:382–386; Jee and Ma 1997 Bone 21:297–304; Centrella et al. 1994 Endocrine Rev. 15:27–39). After the treatment period, the dishes were rinsed with PBS and total cellular RNA was isolated from the nontreated and treated cells using TRIzol according to the manufacturers instructions (GibcoBRL). RADE was then performed with the isolated RNA samples as above; the regulated gene fragments were identified, cloned and sequenced. These experiments identified a total of 82 differentially expressed genes. A BLAST (basic local alignment search tool) search of the public data bases was performed on the RADE-obtained gene fragments; one of the gene fragments was highly homologous to mouse SFRP-1. This gene fragment was identified during RADE using the following primer pair: 5′-[…]-3′ (HT11A)3′ end (reverse primer) and 5′-[…]-3′ (H-AP1) 5′ end (forward primer), which sequences are SEQ ID NO 11 and SEQ ID NO 12, respectively. The expression and regulation of the gene fragment having homology to mouse cDNA SFRP-1 was confirmed by Northern blot analysis.
In order to confirm the regulation of hOB SFRP gene expression by different osteogenic agents (i.e., the DNA fragment identified in Example 1, above), the hOB cell lines were treated with PTH, PGE2, and TGF-β1; RNA was then isolated for Northern hybridizations. The experiments were performed as follows. The hOB cell lines were seeded into 150 mm dishes and treated as described in Example 1, except that polyA+ RNA was isolated from total cellular RNA using Oligotex mRNA maxi kits as described by the manufacturer (Qiagen). Northern blot analysis was performed using either the excised RADE hOB SFRP gene fragment, the cloned hOB SFRP gene fragment or the cloned full-length hOB SFRP cDNA as a ^32P-labeled probe (as described in Bodine et al. 1996 J. Bone Miner. Res. 11: 806–819, which is incorporated herein). Each of these probes detected a 4.4–4.6 kb message in the hOB cells. […]

hOB SFRP gene fragment = test: RADE (differential-display PCR) of hOB cell lines treated with osteogenic agents; conditions: 24 hr
Text: It can also be seen that the hOB-01-C1 cells express high basal levels of this gene.
The hOB SFRP gene fragment was identified using RADE (rapid analysis of differential expression) technology as described by Shiue 1997 Drug Develop. Res. 41: 142–159, the whole of which is incorporated herein. Three hOB cell lines (hOB-03-C5, hOB-03-CE6 and hOB-01-C1), representing three distinct stages of differentiation (proliferative, mature and preosteocytic, respectively) were used to isolate and identify SFRP. The hOB cell lines were established and cultured as previously described (Bodine et al. 1996 J. Bone Miner. Res. 11: 806–819; Bodine et al. 1996 Endocrinology 137: 4592–4604; Bodine et al. 1997 J. Cell. Biochem. 65: 368–387). […] However, in contrast to osteosarcoma cells (Stein and Lian 1993 Endocrine Rev. 14: 424–442), the hOB cell lines were faithful to the proliferation/differentiation relationship at the nonpermissive temperature (>37° C.) when the T-antigen mutant is inactivated. The cell lines were seeded into 150 mm dishes at ˜40,000 cells/cm^2 with growth medium [D-MEM/F-12 containing 10% (v/v) heat-inactivated fetal bovine serum (FBS), 1% (v/v) Penicillin-Streptomycin and 2 mM GlutaMAX-1] and incubated overnight at 34° C. […]

| EC50 (hOB SFRP mRNA [2]; hOB-03-C5 cells, increasing concentrations, 24 hr, read-out: EC50 for up-regulation of hOB SFRP mRNA expression) | EC50 for up-regulation of hOB SFRP mRNA, times higher than in the hOB-03-C5 cells (hOB SFRP mRNA [2]; hOB-03-CE6 cells) | IC50 (hOB SFRP mRNA [1]; hOB-01-C1 cells, read-out: IC50 for suppression of SFRP gene expression) | Molecule | up-regulation of SFRP message (hOB SFRP mRNA [1]; normal hOB cells (explant cultures), 100 nM) | regulation of SFRP mRNA (hOB SFRP mRNA [2]; 24 hr, 37° C.) | time course of hOB SFRP mRNA expression (hOB SFRP mRNA [2]; hOB-03-C5 cells, 100 nM, 2 to 24 hr) | hOB SFRP mRNA expression (hOB SFRP mRNA [2]; hOB-03-C5 cells, 100 nM, 24 hr) | hOB SFRP mRNA expression (hOB SFRP mRNA [2]; maturation-stage hOB-03-CE6 cells) | up-regulation of steady-state SFRP mRNA levels (hOB SFRP mRNA [2]; normal hOB cells (explant cultures), 100 nM, 24 hr, 37° C.) | regulation of hOB SFRP gene fragment (hOB SFRP gene fragment; hOB-03-C5 and hOB-03-CE6 cell lines, 100 nM) | suppression of SFRP gene expression (hOB SFRP mRNA [1]; hOB-01-C1 cells, increasing concentrations) | suppression of hOB SFRP mRNA levels (hOB SFRP mRNA [2]; hOB-01-C1 cells, 100 pM, 24 hr) | regulation of hOB SFRP gene fragment (hOB SFRP gene fragment; pre-osteocytic hOB-01-C1 cell line, 0.1 nM) |
| --- | --- | --- | --- | --- | --- | --- | --- | --- | --- | --- | --- | --- | --- |
| ~8 nM | about 10 times |  | CCCCC[C@H](O)/C=C/[C@H]1[C@H](O)CC(=O)[C@@H]1C/C=C\CCCC(=O)O [PGE2, prostaglandin E2] | 10 fold | not regulated | up-regulated hOB SFRP mRNA expression in a time-dependent manner | completely up-regulated | up-regulation | ~1.3 fold | strongly up-regulated |  |  |  |
|  |  | ~0.004 nM | human transforming growth factor-β1 [TGF-β1] |  | not regulated |  |  |  |  |  | approximately 70% | 80% | down-regulated |
